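Cultured in 96-well plates, cells were exposed to test compound for 48 hours across five concentrations. The concentration for 50% growth inhibition is given as GI50.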 The source made the active and inactive calls. Cut-off read from the data, not from the text of the source: active = GI50 up to about 1.1 µM and inactive = higher.
Columns and labels:
Test in all cases: DTP human tumour cell line panel, 48 h
786-0 = system: 786-0
A498 = system: A498
A549 = system: A549
ACHN = system: ACHN
CAKI-1 = system: CAKI-1
CCRF-CEM = system: CCRF-CEM
COLO 205 = system: COLO 205
DLD-1 = system: DLD-1
DMS-114 = system: DMS-114
DMS-273 = system: DMS-273
EKVX = system: EKVX
HCC 2998 = system: HCC 2998
HCT-116 = system: HCT-116
HCT-15 = system: HCT-15
HL-60 = system: HL-60
HOP-18 = system: HOP-18
HOP-62 = system: HOP-62
HOP-92 = system: HOP-92
HT-29 = system: HT-29
IGROV-1 = system: IGROV-1
K562 = system: K562
KM-20L2 = system: KM-20L2
KM12 = system: KM12
LOX IMVI = system: LOX IMVI
LXFL 529 = system: LXFL 529
M14 = system: M14
M19-MEL = system: M19-MEL
MOLT-4 = system: MOLT-4
Malme-3M = system: Malme-3M
NCI-H226 = system: NCI-H226
NCI-H23 = system: NCI-H23
NCI-H460 = system: NCI-H460
NCI-H522 = system: NCI-H522
OVCAR-3 = system: OVCAR-3
OVCAR-4 = system: OVCAR-4
OVCAR-5 = system: OVCAR-5
OVCAR-8 = system: OVCAR-8
RPMI-8226 = system: RPMI-8226
RXF 393 = system: RXF 393
SF-268 = system: SF-268
SF-295 = system: SF-295
SF-539 = system: SF-539
SK-MEL-28 = system: SK-MEL-28
SK-MEL-2 = system: SK-MEL-2
SK-MEL-5 = system: SK-MEL-5
SK-OV-3 = system: SK-OV-3
SN12C = system: SN12C
SNB-19 = system: SNB-19
SNB-75 = system: SNB-75
SNB-78 = system: SNB-78
SR = system: SR
SW-620 = system: SW-620
TK-10 = system: TK-10
U-251 = system: U-251
UACC-257 = system: UACC-257
UACC-62 = system: UACC-62
UO-31 = system: UO-31
XF498 = system: XF498

`O=C1C/C(=C/c2ccc(/C=C3/CC(=O)N(c4cccc(Br)c4)C3=O)cc2)C(=O)N1c1cccc(Br)c1` was tested, and the GI50 (786-0) was 58.1 µM (inactive), the GI50 (A498) was > 71 µM (inactive) and the GI50 (A549) was > 100 µM (inactive). The GI50 (ACHN) was > 100 µM (inactive), the GI50 (CAKI-1) was > 100 µM (inactive) and the GI50 (CCRF-CEM) was 66.1 µM (inactive). For the same compound, the GI50 (COLO 205) was > 100 µM (inactive), the GI50 (DLD-1) was > 100 µM (inactive) and the GI50 (DMS-114) was > 100 µM (inactive). The GI50 (DMS-273) was > 100 µM (inactive), the GI50 (EKVX) was > 100 µM (inactive) and the GI50 (HCC 2998) was > 100 µM (inactive). For the same compound, the GI50 (HCT-116) was > 100 µM (inactive), the GI50 (HCT-15) was over 100 µM and the GI50 (HL-60) was > 100 µM (inactive). The GI50 (HOP-18) was > 100 µM (inactive), the GI50 (HOP-62) was > 100 µM (inactive) and the GI50 (HOP-92) was 50.2 µM (inactive). The GI50 (HT-29) was > 100 µM (inactive), the GI50 (IGROV-1) was > 100 µM (inactive) and the GI50 (K562) was > 67 µM (inactive). For the same compound, the GI50 (KM-20L2) was > 100 µM (inactive), the GI50 (KM12) was > 100 µM (inactive) and the GI50 (LOX IMVI) was > 100 µM (inactive). For the same compound, the GI50 (LXFL 529) was > 100 µM (inactive), the GI50 (M14) was > 100 µM (inactive) and the GI50 (M19-MEL) was > 100 µM (inactive). For the same compound, the GI50 (MOLT-4) was 54.2 µM (inactive), the GI50 (Malme-3M) was > 100 µM (inactive) and the GI50 (NCI-H226) was > 100 µM (inactive). For the same compound, the GI50 (NCI-H23) was > 100 µM (inactive), the GI50 (NCI-H460) was > 100 µM (inactive) and the GI50 (NCI-H522) was > 100 µM (inactive). For the same compound, the GI50 (OVCAR-3) was > 100 µM (inactive), the GI50 (OVCAR-4) was > 100 µM (inactive) and the GI50 (OVCAR-5) was > 100 µM (inactive). The GI50 (OVCAR-8) was > 100 µM (inactive), the GI50 (RPMI-8226) was > 100 µM (inactive) and the GI50 (RXF 393) was 30.1 µM (inactive). For the same compound, the GI50 (SF-268) was > 100 µM (inactive), the GI50 (SF-295) was 60.7 µM (inactive) and the GI50 (SF-539) was 51.5 µM (inactive). For the same compound, the GI50 (SK-MEL-28) was > 100 µM (inactive), the GI50 (SK-MEL-2) was > 100 µM (inactive) and the GI50 (SK-MEL-5) was > 100 µM (inactive). The GI50 (SK-OV-3) was > 100 µM (inactive), the GI50 (SN12C) was > 100 µM (inactive) and the GI50 (SNB-19) was > 100 µM (inactive). The GI50 (SNB-75) was 23.5 µM (inactive), the GI50 (SNB-78) was 36.2 µM (inactive) and the GI50 (SR) was 97.3 µM (inactive). The GI50 (SW-620) was > 100 µM (inactive), the GI50 (TK-10) was > 100 µM (inactive) and the GI50 (U-251) was > 81.7 µM (inactive). For the same compound, the GI50 (UACC-257) was > 100 µM (inactive), the GI50 (UACC-62) was > 100 µM (inactive) and the GI50 (UO-31) was > 100 µM (inactive). For the same compound, the GI50 (XF498) was 26.5 µM (inactive).

`COc1ccc(CC#C/C=C/C(=O)NCC(C)C)cc1` was tested, and the GI50 (786-0) was > 100 µM (inactive), the GI50 (A549) was > 100 µM (inactive) and the GI50 (ACHN) was > 100 µM (inactive). For the same compound, the GI50 (CCRF-CEM) was 74.1 µM (inactive), the GI50 (COLO 205) was > 100 µM (inactive) and the GI50 (DLD-1) was > 100 µM (inactive). For the same compound, the GI50 (DMS-114) was > 100 µM (inactive), the GI50 (DMS-273) was > 100 µM (inactive) and the GI50 (EKVX) was > 100 µM (inactive). The GI50 (HCC 2998) was > 100 µM (inactive), the GI50 (HCT-116) was > 100 µM (inactive) and the GI50 (HCT-15) was over 100 µM. For the same compound, the GI50 (HL-60) was 29.5 µM (inactive), the GI50 (HOP-18) was > 100 µM (inactive) and the GI50 (HOP-92) was > 100 µM (inactive). The GI50 (HT-29) was > 100 µM (inactive), the GI50 (IGROV-1) was > 100 µM (inactive) and the GI50 (K562) was 79.3 µM (inactive). For the same compound, the GI50 (KM-20L2) was > 100 µM (inactive), the GI50 (KM12) was > 100 µM (inactive) and the GI50 (LOX IMVI) was > 100 µM (inactive). For the same compound, the GI50 (LXFL 529) was > 100 µM (inactive), the GI50 (M14) was > 100 µM (inactive) and the GI50 (M19-MEL) was > 100 µM (inactive). The GI50 (MOLT-4) was > 100 µM (inactive), the GI50 (Malme-3M) was > 100 µM (inactive) and the GI50 (NCI-H226) was > 100 µM (inactive). For the same compound, the GI50 (NCI-H23) was > 100 µM (inactive), the GI50 (NCI-H460) was > 100 µM (inactive) and the GI50 (NCI-H522) was > 100 µM (inactive). For the same compound, the GI50 (OVCAR-3) was > 100 µM (inactive), the GI50 (OVCAR-4) was > 100 µM (inactive) and the GI50 (OVCAR-5) was > 100 µM (inactive). The GI50 (OVCAR-8) was > 100 µM (inactive), the GI50 (RPMI-8226) was > 100 µM (inactive) and the GI50 (RXF 393) was 40.3 µM (inactive). For the same compound, the GI50 (SF-268) was > 100 µM (inactive), the GI50 (SF-295) was > 100 µM (inactive) and the GI50 (SF-539) was > 100 µM (inactive). For the same compound, the GI50 (SK-MEL-28) was > 100 µM (inactive), the GI50 (SK-MEL-2) was > 100 µM (inactive) and the GI50 (SK-MEL-5) was > 100 µM (inactive). For the same compound, the GI50 (SK-OV-3) was > 100 µM (inactive), the GI50 (SN12C) was > 100 µM (inactive) and the GI50 (SNB-19) was > 100 µM (inactive). For the same compound, the GI50 (SNB-75) was 55 µM (inactive), the GI50 (SNB-78) was > 100 µM (inactive) and the GI50 (SR) was 66.1 µM (inactive). For the same compound, the GI50 (SW-620) was > 100 µM (inactive), the GI50 (TK-10) was > 100 µM (inactive) and the GI50 (U-251) was > 100 µM (inactive). For the same compound, the GI50 (UACC-257) was > 100 µM (inactive), the GI50 (UACC-62) was > 100 µM (inactive) and the GI50 (UO-31) was > 100 µM (inactive). The GI50 (XF498) was > 100 µM (inactive).
